Reference: ChEMBL document CHEMBL1201862, “PubChem BioAssay data set” (2004)
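Exposure lasted 48 hours, with cells grown in 96-well plates and compounds tested at five concentrations. Abbreviation: GI50, concentration required for 50% inhibition of growth.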 Calls of active or inactive are those of the source. No stated cut-off is given here; in the data, active = GI50 up to about 1.1 µM and inactive = higher.

What was measured:
Assay in all cases: NCI anticancer screen, dose series, 48 h
786-0 = tested on: 786-0
A498 = tested on: A498
A549 = tested on: A549
ACHN = tested on: ACHN
BT-549 = tested on: BT-549
CAKI-1 = tested on: CAKI-1
CCRF-CEM = tested on: CCRF-CEM
COLO 205 = tested on: COLO 205
DU-145 = tested on: DU-145
EKVX = tested on: EKVX
HCC 2998 = tested on: HCC 2998
HCT-116 = tested on: HCT-116
HCT-15 = tested on: HCT-15
HOP-62 = tested on: HOP-62
HOP-92 = tested on: HOP-92
IGROV-1 = tested on: IGROV-1
K562 = tested on: K562
KM12 = tested on: KM12
LOX IMVI = tested on: LOX IMVI
M14 = tested on: M14
MCF7 = tested on: MCF7
MDA-MB-231 = tested on: MDA-MB-231
MDA-MB-435 = tested on: MDA-MB-435
MDA-N = tested on: MDA-N
MOLT-4 = tested on: MOLT-4
Malme-3M = tested on: Malme-3M
NCI-H226 = tested on: NCI-H226
NCI-H23 = tested on: NCI-H23
NCI-H460 = tested on: NCI-H460
NCI-H522 = tested on: NCI-H522
NCI/ADR-RES = tested on: NCI/ADR-RES
OVCAR-3 = tested on: OVCAR-3
OVCAR-4 = tested on: OVCAR-4
OVCAR-5 = tested on: OVCAR-5
PC-3 = tested on: PC-3
RPMI-8226 = tested on: RPMI-8226
RXF 393 = tested on: RXF 393
SF-268 = tested on: SF-268
SF-295 = tested on: SF-295
SF-539 = tested on: SF-539
SK-MEL-28 = tested on: SK-MEL-28
SK-MEL-2 = tested on: SK-MEL-2
SK-MEL-5 = tested on: SK-MEL-5
SK-OV-3 = tested on: SK-OV-3
SN12C = tested on: SN12C
SNB-19 = tested on: SNB-19
SW-620 = tested on: SW-620
T47D = tested on: T47D
TK-10 = tested on: TK-10
U-251 = tested on: U-251
UACC-257 = tested on: UACC-257
UACC-62 = tested on: UACC-62
UO-31 = tested on: UO-31
HL-60 = tested on: HL-60
HT-29 = tested on: HT-29
OVCAR-8 = tested on: OVCAR-8
SNB-75 = tested on: SNB-75

Compound: CC[C@@]1(CCC(=O)NCCc2c[nH]c3ccccc23)CCC(=O)N2CCc3c([nH]c4ccccc34)[C@H]21
- GI50 (786-0): 11.7 µM (inactive)
- GI50 (A498): 27.1 µM (inactive)
- GI50 (A549): 8.73 µM (inactive)
- GI50 (ACHN): 15.3 µM (inactive)
- GI50 (BT-549): 4.31 µM (inactive)
- GI50 (CAKI-1): > 100 µM (inactive)
- GI50 (CCRF-CEM): 7.33 µM (inactive)
- GI50 (COLO 205): 24.2 µM (inactive)
- GI50 (DU-145): 29 µM (inactive)
- GI50 (EKVX): 12.2 µM (inactive)
- GI50 (HCC 2998): 14.2 µM (inactive)
- GI50 (HCT-116): 11.8 µM (inactive)
- GI50 (HCT-15): 20 µM
- GI50 (HOP-62): 37 µM (inactive)
- GI50 (HOP-92): 79.3 µM (inactive)
- GI50 (IGROV-1): 4.04 µM (inactive)
- GI50 (K562): 7.45 µM (inactive)
- GI50 (KM12): 4.19 µM (inactive)
- GI50 (LOX IMVI): 27.4 µM (inactive)
- GI50 (M14): 12.6 µM (inactive)
- GI50 (MCF7): 4.44 µM (inactive)
- GI50 (MDA-MB-231): 40.7 µM (inactive)
- GI50 (MDA-MB-435): 7.36 µM (inactive)
- GI50 (MDA-N): 12.6 µM (inactive)
- GI50 (MOLT-4): 3.71 µM (inactive)
- GI50 (Malme-3M): 5.35 µM (inactive)
- GI50 (NCI-H226): 20 µM (inactive)
- GI50 (NCI-H23): 10.3 µM (inactive)
- GI50 (NCI-H460): 6.89 µM (inactive)
- GI50 (NCI-H522): 3.9 µM (inactive)
- GI50 (NCI/ADR-RES): 4.57 µM (inactive)
- GI50 (OVCAR-3): 24.5 µM (inactive)
- GI50 (OVCAR-4): 12.9 µM (inactive)
- GI50 (OVCAR-5): 22.8 µM (inactive)
- GI50 (PC-3): 5.56 µM (inactive)
- GI50 (RPMI-8226): 3.08 µM (inactive)
- GI50 (RXF 393): 6.12 µM (inactive)
- GI50 (SF-268): 5.64 µM (inactive)
- GI50 (SF-295): 5.13 µM (inactive)
- GI50 (SF-539): 12 µM (inactive)
- GI50 (SK-MEL-28): 39.4 µM (inactive)
- GI50 (SK-MEL-2): 17.1 µM (inactive)
- GI50 (SK-MEL-5): 24.2 µM (inactive)
- GI50 (SK-OV-3): 36.2 µM (inactive)
- GI50 (SN12C): 39.5 µM (inactive)
- GI50 (SNB-19): 9.71 µM (inactive)
- GI50 (SW-620): 25.8 µM (inactive)
- GI50 (T47D): 28.7 µM (inactive)
- GI50 (TK-10): 16.7 µM (inactive)
- GI50 (U-251): 29.8 µM (inactive)
- GI50 (UACC-257): 14 µM (inactive)
- GI50 (UACC-62): 17.1 µM (inactive)
- GI50 (UO-31): 22.9 µM (inactive)

Compound: COC(=O)c1cc(Br)c(C(=O)C(Cl)(Cl)Cl)[nH]1
- GI50 (786-0): > 100 µM (inactive)
- GI50 (A498): > 100 µM (inactive)
- GI50 (A549): > 100 µM (inactive)
- GI50 (ACHN): > 100 µM (inactive)
- GI50 (BT-549): > 100 µM (inactive)
- GI50 (CAKI-1): > 100 µM (inactive)
- GI50 (CCRF-CEM): > 100 µM (inactive)
- GI50 (COLO 205): > 100 µM (inactive)
- GI50 (DU-145): > 100 µM (inactive)
- GI50 (EKVX): > 100 µM (inactive)
- GI50 (HCT-116): > 100 µM (inactive)
- GI50 (HCT-15): > 100 µM
- GI50 (HL-60): > 100 µM (inactive)
- GI50 (HOP-62): > 100 µM (inactive)
- GI50 (HOP-92): > 100 µM (inactive)
- GI50 (HT-29): > 100 µM (inactive)
- GI50 (IGROV-1): > 100 µM (inactive)
- GI50 (K562): > 100 µM (inactive)
- GI50 (KM12): > 100 µM (inactive)
- GI50 (LOX IMVI): > 100 µM (inactive)
- GI50 (M14): > 100 µM (inactive)
- GI50 (MDA-MB-231): > 100 µM (inactive)
- GI50 (MDA-MB-435): > 100 µM (inactive)
- GI50 (MDA-N): > 100 µM (inactive)
- GI50 (MOLT-4): > 100 µM (inactive)
- GI50 (Malme-3M): > 100 µM (inactive)
- GI50 (NCI-H226): > 100 µM (inactive)
- GI50 (NCI-H23): > 100 µM (inactive)
- GI50 (NCI-H460): > 100 µM (inactive)
- GI50 (NCI-H522): > 100 µM (inactive)
- GI50 (NCI/ADR-RES): > 100 µM (inactive)
- GI50 (OVCAR-3): > 100 µM (inactive)
- GI50 (OVCAR-4): > 100 µM (inactive)
- GI50 (OVCAR-5): > 100 µM (inactive)
- GI50 (OVCAR-8): > 100 µM (inactive)
- GI50 (PC-3): > 100 µM (inactive)
- GI50 (RPMI-8226): > 100 µM (inactive)
- GI50 (RXF 393): > 100 µM (inactive)
- GI50 (SF-268): > 100 µM (inactive)
- GI50 (SF-295): > 100 µM (inactive)
- GI50 (SF-539): > 100 µM (inactive)
- GI50 (SK-MEL-28): > 100 µM (inactive)
- GI50 (SK-MEL-2): > 100 µM (inactive)
- GI50 (SK-MEL-5): > 100 µM (inactive)
- GI50 (SK-OV-3): > 100 µM (inactive)
- GI50 (SN12C): > 100 µM (inactive)
- GI50 (SNB-19): > 100 µM (inactive)
- GI50 (SNB-75): > 100 µM (inactive)
- GI50 (SW-620): > 100 µM (inactive)
- GI50 (T47D): > 100 µM (inactive)
- GI50 (TK-10): > 100 µM (inactive)
- GI50 (U-251): > 100 µM (inactive)
- GI50 (UACC-257): > 100 µM (inactive)
- GI50 (UACC-62): > 100 µM (inactive)
- GI50 (UO-31): > 100 µM (inactive)
